Solubility and elimination half-life data for two compounds are collected here from patent EP1146864B1, “PH INDEPENDENT EXTENDED RELEASE PHARMACEUTICAL FORMULATION” (ABBOTT LABORATORIES, priority 1999, dated 2000).

Structures are written as SMILES.

The nature of series [1]: physchem.
The conditions of series [2]: in children; cited from earlier work.

In the case of `CCCC(CCC)C(=O)O` [Divalproex sodium, sodium hydrogen divalproate], the solubility (as a rule, the concentration that dissolves in the medium under given conditions) was 1 mg/mL in series [1] (pH 1, simulated gastric fluid); 2 mg/mL in series [1] (pH 4.7, aqueous buffer); 3.4 mg/mL in series [1] (pH 4.84, aqueous buffer); 21 mg/mL in series [1] (pH 5.87, aqueous buffer); 36 mg/mL in series [1] (pH 6.17, aqueous buffer); 200 mg/mL in series [1] (pH 6.7, aqueous buffer).
On to `CCCC(CCC)C(=O)O` [valproic acid, 2-propylpentanoic acid], for which the elimination half-life result in series [2] was “four and fourteen”.
